Experiments:
[1] = DRUGMATRIX: Calcium Channel Type L, Benzothiazepine radioligand binding (ligand: [3H] Diltiazem); format: cell membranes, Rattus norvegicus, Wistar, Brain, Membrane; details: Not Active = under 50% inhibition at 10 µM
[2] = biological target: T1, 3-hydroxy-3-methylglutaryl-coenzyme A reductase (Homo sapiens, UniProt P04035); set-up: species or system Escherichia coli;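 note: enzyme inhibition assay of HMG-CoA reductase using radiolabeled [14C]HMG-CoA as substrate; in other assays of this panel Not Active means under 50% inhibition at 10 µM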
T1 sequence (P04035 whole entry): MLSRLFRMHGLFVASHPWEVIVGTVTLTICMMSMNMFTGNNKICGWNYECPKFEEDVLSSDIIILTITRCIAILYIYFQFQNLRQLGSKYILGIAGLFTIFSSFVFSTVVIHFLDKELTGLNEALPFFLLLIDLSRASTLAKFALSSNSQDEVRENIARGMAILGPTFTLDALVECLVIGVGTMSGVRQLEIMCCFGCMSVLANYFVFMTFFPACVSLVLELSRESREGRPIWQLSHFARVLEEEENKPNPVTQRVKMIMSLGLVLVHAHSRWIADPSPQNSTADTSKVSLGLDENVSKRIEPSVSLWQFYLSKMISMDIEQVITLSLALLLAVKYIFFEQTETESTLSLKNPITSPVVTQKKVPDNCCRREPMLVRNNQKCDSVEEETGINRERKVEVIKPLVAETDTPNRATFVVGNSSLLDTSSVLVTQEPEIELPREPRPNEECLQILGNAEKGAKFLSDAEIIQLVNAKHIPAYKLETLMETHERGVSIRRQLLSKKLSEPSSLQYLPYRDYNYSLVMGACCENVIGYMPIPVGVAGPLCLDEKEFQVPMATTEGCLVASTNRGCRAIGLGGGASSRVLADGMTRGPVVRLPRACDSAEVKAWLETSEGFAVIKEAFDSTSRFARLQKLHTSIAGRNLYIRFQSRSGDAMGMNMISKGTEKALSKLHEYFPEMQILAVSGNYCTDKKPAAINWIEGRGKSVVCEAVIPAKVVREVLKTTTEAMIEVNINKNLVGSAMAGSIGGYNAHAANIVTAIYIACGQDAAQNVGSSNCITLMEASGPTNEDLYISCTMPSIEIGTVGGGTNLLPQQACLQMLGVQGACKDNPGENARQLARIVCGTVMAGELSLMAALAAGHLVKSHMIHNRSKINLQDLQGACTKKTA

Cytochrome P450 2C19 = Cytochrome P450 2C19 (Homo sapiens, UniProt P33261); details: bti-tn-5b1-4; note: in other assays of this panel Not Active means under 50% inhibition at 10 µM
Sequence of Cytochrome P450 2C19 (P33261 whole entry): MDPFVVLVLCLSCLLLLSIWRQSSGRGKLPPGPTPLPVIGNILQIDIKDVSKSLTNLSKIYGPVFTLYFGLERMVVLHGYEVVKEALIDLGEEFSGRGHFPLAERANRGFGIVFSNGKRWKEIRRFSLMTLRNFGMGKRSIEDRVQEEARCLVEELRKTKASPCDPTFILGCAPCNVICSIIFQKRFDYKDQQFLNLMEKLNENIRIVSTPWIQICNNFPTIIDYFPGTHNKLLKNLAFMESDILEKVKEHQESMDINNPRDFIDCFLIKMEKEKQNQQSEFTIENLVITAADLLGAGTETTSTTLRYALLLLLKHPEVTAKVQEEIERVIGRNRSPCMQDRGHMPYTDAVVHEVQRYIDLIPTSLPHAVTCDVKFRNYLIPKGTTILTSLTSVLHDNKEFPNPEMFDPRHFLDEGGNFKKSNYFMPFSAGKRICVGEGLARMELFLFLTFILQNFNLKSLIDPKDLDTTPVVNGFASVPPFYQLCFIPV

[3] = biological target: Platelet-activating factor receptor (Homo sapiens, UniProt P25105); experiment: biochemical; format: tissue-based; details: platelet; note: in other assays of this panel Not Active means under 50% inhibition at 10 µM
Sequence of Platelet-activating factor receptor (P25105 whole entry): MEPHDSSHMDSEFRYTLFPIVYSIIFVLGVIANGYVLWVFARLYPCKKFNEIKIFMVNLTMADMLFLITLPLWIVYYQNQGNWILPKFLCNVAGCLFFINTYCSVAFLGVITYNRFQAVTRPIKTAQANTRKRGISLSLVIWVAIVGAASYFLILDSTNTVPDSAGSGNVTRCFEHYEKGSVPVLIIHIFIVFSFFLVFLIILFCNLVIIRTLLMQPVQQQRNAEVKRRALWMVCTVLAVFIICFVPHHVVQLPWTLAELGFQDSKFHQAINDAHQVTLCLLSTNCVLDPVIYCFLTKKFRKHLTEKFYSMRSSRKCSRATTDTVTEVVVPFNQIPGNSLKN

[4] = biological target: T2, Alpha-1B adrenergic receptor (Rattus norvegicus, UniProt P15823); experiment: DRUGMATRIX: Alpha-1B adrenergic receptor radioligand binding (ligand: prazosin); format: cell membranes, Wistar, Liver, Membrane; details: Not Active = under 50% inhibition at 10 µM
T2 sequence (P15823 whole entry): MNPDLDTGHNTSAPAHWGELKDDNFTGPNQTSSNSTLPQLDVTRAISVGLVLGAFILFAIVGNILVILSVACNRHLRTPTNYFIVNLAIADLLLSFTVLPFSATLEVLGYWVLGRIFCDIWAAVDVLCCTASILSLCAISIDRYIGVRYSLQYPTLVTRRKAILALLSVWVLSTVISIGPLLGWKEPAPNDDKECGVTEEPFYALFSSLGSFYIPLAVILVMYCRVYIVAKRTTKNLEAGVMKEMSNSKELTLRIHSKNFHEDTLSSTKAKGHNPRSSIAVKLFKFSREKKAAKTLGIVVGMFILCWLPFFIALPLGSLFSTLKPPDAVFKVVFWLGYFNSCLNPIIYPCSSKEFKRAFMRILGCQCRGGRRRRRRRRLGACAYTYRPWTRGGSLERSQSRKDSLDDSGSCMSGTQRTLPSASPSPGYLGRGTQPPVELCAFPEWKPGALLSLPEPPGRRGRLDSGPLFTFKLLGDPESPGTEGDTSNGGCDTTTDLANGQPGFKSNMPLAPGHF

[5] = DRUGMATRIX: GABAA, Chloride Channel, TBOB radioligand binding (ligand: [3H] TBOB); format: cell membranes, Rattus norvegicus, Wistar, Cerebral cortex, Membrane; details: Not Active = under 50% inhibition at 10 µM
Cytochrome P450 2D6 = Cytochrome P450 2D6 (Homo sapiens, UniProt P10635); details: bti-tn-5b1-4; note: in other assays of this panel Not Active means under 50% inhibition at 10 µM
Sequence of Cytochrome P450 2D6 (P10635 whole entry): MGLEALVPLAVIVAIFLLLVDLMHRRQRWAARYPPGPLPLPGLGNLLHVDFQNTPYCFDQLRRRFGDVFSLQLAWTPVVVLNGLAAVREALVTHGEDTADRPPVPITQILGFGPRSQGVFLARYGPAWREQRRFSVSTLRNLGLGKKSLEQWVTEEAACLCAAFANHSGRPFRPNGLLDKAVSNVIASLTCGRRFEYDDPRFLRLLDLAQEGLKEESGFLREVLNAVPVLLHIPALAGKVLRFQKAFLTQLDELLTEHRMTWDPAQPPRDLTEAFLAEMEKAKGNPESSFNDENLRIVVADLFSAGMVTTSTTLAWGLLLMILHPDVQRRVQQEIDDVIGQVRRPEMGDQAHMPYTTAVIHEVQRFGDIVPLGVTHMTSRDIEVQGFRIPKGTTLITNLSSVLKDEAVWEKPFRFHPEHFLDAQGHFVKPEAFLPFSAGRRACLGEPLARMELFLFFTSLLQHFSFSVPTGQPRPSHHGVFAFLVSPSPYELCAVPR

Row | Compound | IC50 [1] | Ki [1] | IC50 [2] | IC50 (Cytochrome P450 2C19) | Ki (Cytochrome P450 2C19) | IC50 [3] | IC50 [4] | IC50 [5] | Ki [5] | IC50 (Cytochrome P450 2D6) | Ki (Cytochrome P450 2D6) | IC50 ([1]; read-out: IC50) | Ki ([1]; read-out: Ki) | IC50 ([4]; read-out: IC50) | Ki ([4]; read-out: Ki) | Ki [2] | Ki [3] | Ki [4]
1 | O=C(/C=C/c1ccc(O)c(O)c1)OCCc1ccccc1 [CAFFEIC ACID PHENETHYL ESTER] | Not Active | Not Active | Not Active | Not Active | Not Active | Not Active | Not Active | Not Active | Not Active | Not Active | Not Active |  |  |  |  |  |  | 
2 | OCCO [ETHYLENE GLYCOL] | Not Active | Not Active | Not Active | Not Active | Not Active | Not Active | Not Active | Not Active | Not Active | Not Active | Not Active |  |  |  |  |  |  | 
3 | C[C@H]([C@](O)(Cn1cncn1)c1ccc(F)cc1F)S(C)(=O)=O [GENACONAZOLE] | Not Active | Not Active | Not Active | Not Active | Not Active | Not Active | Not Active | Not Active | Not Active | Not Active | Not Active |  |  |  |  |  |  | 
4 | Nc1nc(N)nc(NC2CC2)n1 [CYROMAZINE] | Not Active | Not Active | Not Active | Not Active | Not Active | Not Active | Not Active | Not Active | Not Active | Not Active | Not Active |  |  |  |  |  |  | 
5 | CC(C)(C)c1ccc(S(=O)(=O)/C=C/C#N)cc1 [BAY-11-7085] | Not Active | Not Active | Not Active | Not Active | Not Active | Not Active | Not Active | Not Active | Not Active | Not Active | Not Active |  |  |  |  |  |  | 
6 | CCC(=O)O[C@H]1[C@H](O[C@@H]2[C@@H](C)[C@H](O[C@H]3C[C@@](C)(OC)[C@@H](O)[C@H](C)O3)[C@@H](C)C(=O)O[C@H](CC)[C@@](C)(O)[C@H](O)[C@@H](C)C(=O)[C@H](C)C[C@@]2(C)O)O[C@H](C)C[C@@H]1N(C)C [ERYTHROMYCIN PROPIONATE] | Not Active | Not Active | Not Active | Not Active | Not Active | Not Active | Not Active | Not Active | Not Active | Not Active | Not Active |  |  |  |  |  |  | 
7 | C#C[C@]1(O)CC[C@H]2[C@@H]3CCc4cc(O)ccc4[C@H]3CC[C@@]21C [ETHINYL ESTRADIOL] |  |  | Not Active | Not Active | Not Active | Not Active | Not Active | Not Active | Not Active | Not Active | Not Active | 15.4 µM | 13.7 µM |  |  |  |  | 
8 | Nc1nc(Cl)nc2c1ncn2[C@H]1C[C@H](O)[C@@H](CO)O1 [CLADRIBINE] | Not Active | Not Active | Not Active | Not Active | Not Active | Not Active | Not Active | Not Active | Not Active | Not Active | Not Active |  |  |  |  |  |  | 
9 | CC(CCc1ccc(O)cc1)NCCc1ccc(O)c(O)c1 (centres undefined) [DOBUTAMINE] | Not Active | Not Active | Not Active | Not Active | Not Active | Not Active |  | Not Active | Not Active | Not Active | Not Active |  |  | 0.336 µM | 0.186 µM |  |  | 
10 | POLYVINYL ALCOHOL | Not Active | Not Active | Not Active | Not Active | Not Active | Not Active | Not Active | Not Active | Not Active | Not Active | Not Active |  |  |  |  | Not Active | Not Active | Not Active

— ChEMBL document CHEMBL1909046, “DrugMatrix in vitro pharmacology data”
